“Also recorded” adds a separate entry of the source.
Tests used:
Set-up in all cases: species or system Scherffelia dubia
[1] = tested on: C-SdCen WT (C-terminal domain M93-F168 of SdCen); test: ITC binding of target peptides to wild-type C-SdCen; conditions: for Ka / ΔH: MOPS 50 mM, NaCl 100 mM, SD of fit in parenthesis; for Ka / ΔH / TΔS / ΔG: pH 7.5; for TΔS: from ΔG = ΔH − TΔS; for ΔG: ΔG = −RTln(1/Ka); for effect of calcium on binding (in words): presence vs absence of calcium
C-SdCen F109L = test: ITC binding of target peptides to C-SdCen F109L; conditions: for factor of increase in change in enthalpy (ΔH) / factor of reduction of binding constant by F109L: EDTA; for TΔS / ΔG: F109L, pH 7.5; for TΔS: from ΔG = ΔH − TΔS; for ΔG: ΔG = −RTln(1/Ka); for ΔΔH: difference in binding enthalpy SdCen wt vs F109L; for ΔΔH / ΔΔG: EDTA 2 mM; for ΔΔG: difference in free energy SdCen wt vs F109L
C-SdCen E144A = test: ITC binding of target peptides to C-SdCen E144A; conditions: for factor of decrease in affinity by E144A: absence of calcium; for TΔS / ΔG: pH 7.5; for TΔS: from ΔG = ΔH − TΔS; for ΔG: ΔG = −RTln(1/Ka); for ΔΔH: difference in binding enthalpy SdCen wt vs E144A
C-SdCen F109L-E144A = test: ITC binding of target peptides to C-SdCen F109L-E144A; conditions: for TΔS / ΔG: F109L-E144A, pH 7.5; for TΔS: from ΔG = ΔH − TΔS; for ΔG: ΔG = −RTln(1/Ka); for ΔΔH: difference in binding enthalpy SdCen wt vs F109L-E144A; for ΔΔH / ΔΔG: EDTA 2 mM; for ΔΔG: difference in free energy SdCen wt vs F109L-E144A
[2] = E144A, 30 °C, no Ca2+ (EDTA 2 mM)

For 846-NWKLLAKGLLIRERLKR-863 [P17-XPC], which Ka ([1]; WT, 30 °C, Ca2+ 2 mM) is on record?
Its Ka is 59.4(9.10) 10^6 M^−1.

And the ΔH ([1]; WT, 30 °C, Ca2+ 2 mM)?
Its ΔH is −23.4(0.16) kcal/mol.

What about the TΔS ([1]; WT, 30 °C, Ca2+ 2 mM) of the same substance?
Its TΔS is -12.63 kcal/mol.

And the ΔG ([1]; WT, 30 °C, Ca2+ 2 mM)?
Its ΔG is -10.77 kcal/mol.

And the “factor of higher affinity for P17-XPC than for R18-Sfi1” value ([1]; WT, 30 °C, EDTA)?
Its value is 7.

And the ΔG ([1]; WT, 30 °C, no Ca2+ (EDTA 2 mM))?
The ΔG was -10.41 kcal/mol.

What about the Ka ([1]; WT, 37 °C, Ca2+ 2 mM) of the same substance?
The Ka was 73.2(7.0) 10^6 M^−1.

What about the ΔH ([1]; WT, 37 °C, Ca2+ 2 mM) of the same substance?
Its ΔH is −23.36(0.08) kcal/mol.

And the TΔS ([1]; WT, 37 °C, Ca2+ 2 mM)?
Its TΔS is -12.18 kcal/mol.

And the ΔG ([1]; WT, 37 °C, Ca2+ 2 mM)?
Its ΔG is -11.18 kcal/mol.

And the “factor of higher affinity for P17-XPC than for R18-Sfi1” value ([1]; WT, 37 °C, EDTA)?
Its value is 10.

And the TΔS ([1]; WT, 37 °C, no Ca2+ (EDTA 2 mM))?
The TΔS was -29.94 kcal/mol.

What about the “difference in ΔH between P17-XPC and R18-Sfi1” value ([1]; WT, EDTA, 30 °C and 37 °C) of the same substance?
The value was 3 kcal/mol.

What about the “factor of decrease in binding on temperature increase” value ([1]; WT, EDTA, 30 °C to 37 °C) of the same substance?
The value was 3.

What about the “factor of decrease in ΔH on temperature increase” value ([1]; WT, EDTA, 30 °C to 37 °C, becoming more negative) of the same substance?
Its value is 1.2.

What about the “effect of calcium on binding (in words)” value ([1]; WT) of the same substance?
The value was “the presence of calcium enhanced the binding”.

And the “effect of calcium on binding (in words)” value ([1]; WT, listed as XPC)?
Its value is “Calcium was not required for binding although its presence enhanced the binding; also recorded: addition of calcium enhanced the affinity”.

And the “affinity comparison XPC vs Sfi1 (in words)” value ([1]; centrin, ITC, present and previous work)?
Its value is “better for XPC than for other targets such as Sfi1”.

What about the “factor of increase in change in enthalpy (ΔH)” value (C-SdCen F109L; F109L vs WT, 30 °C) of the same substance?
Its value is 1.7.

What about the “factor of reduction of binding constant by F109L” value (C-SdCen F109L; F109L vs WT, 30 °C) of the same substance?
The value was 15.

And the “factor of increase in change in enthalpy (ΔH)” value (C-SdCen F109L; F109L vs WT, 37 °C)?
The value was 1.4.

What about the “factor of reduction of binding constant by F109L” value (C-SdCen F109L; F109L vs WT, 37 °C) of the same substance?
The value was 15.

What about the “factor of decrease in Ka by F109L” value (C-SdCen F109L; F109L vs WT, temperature not stated) of the same substance?
Its value is 15.

And the “effect of F109L mutation on binding (in words)” value (C-SdCen F109L; F109L vs WT, listed as XPC)?
Its value is “reduced the binding; also recorded: decreased the binding”.

What about the TΔS (C-SdCen F109L; 30 °C, Ca2+ 2 mM) of the same substance?
The TΔS was -4.78 kcal/mol.

And the ΔG (C-SdCen F109L; 30 °C, Ca2+ 2 mM)?
Its ΔG is -10.85 kcal/mol.

And the TΔS (C-SdCen F109L; 30 °C, no Ca2+ (EDTA 2 mM))?
Its TΔS is -11.88 kcal/mol.

What about the ΔG (C-SdCen F109L; 30 °C, no Ca2+ (EDTA 2 mM)) of the same substance?
Its ΔG is -8.72 kcal/mol.

And the TΔS (C-SdCen F109L; 37 °C, Ca2+ 2 mM)?
The TΔS was -6.20 kcal/mol.

And the ΔG (C-SdCen F109L; 37 °C, Ca2+ 2 mM)?
Its ΔG is -10.77 kcal/mol.

And the ΔΔH (C-SdCen F109L; 30 °C)?
The ΔΔH was -13.2 kcal/mol.

What about the ΔΔH (C-SdCen F109L; 37 °C) of the same substance?
The ΔΔH was -17.44 kcal/mol.

What about the ΔΔG (C-SdCen F109L; 30 °C) of the same substance?
Its ΔΔG is -1.69 kcal/mol.

What about the ΔΔG (C-SdCen F109L; 37 °C) of the same substance?
The ΔΔG was -2.03 kcal/mol.

What about the “factor of decrease in affinity by E144A” value (C-SdCen E144A; E144A vs WT, 30 °C) of the same substance?
Its value is 3.

And the “factor of decrease in affinity by E144A” value (C-SdCen E144A; E144A vs WT, 37 °C)?
The value was 4.

What about the “ΔH compared to wild type (in words)” value (C-SdCen E144A; E144A vs WT, EDTA) of the same substance?
Its value is “the same as for the wild type”.

What about the “effect of E144A mutation on binding (in words)” value (C-SdCen E144A; E144A vs WT, listed as XPC) of the same substance?
Its value is “reduced the binding to XPC”.

What about the TΔS (C-SdCen E144A; E144A, 30 °C, Ca2+ 2 mM) of the same substance?
Its TΔS is -9.36 kcal/mol.

What about the ΔG (C-SdCen E144A; E144A, 30 °C, Ca2+ 2 mM) of the same substance?
Its ΔG is -11.08 kcal/mol.

What about the TΔS (C-SdCen E144A; [2]) of the same substance?
Its TΔS is -19.78 kcal/mol.

What about the ΔG (C-SdCen E144A; [2]) of the same substance?
The ΔG was -9.72 kcal/mol.

What about the TΔS (C-SdCen E144A; E144A, 37 °C, Ca2+ 2 mM) of the same substance?
Its TΔS is -13.76 kcal/mol.

And the ΔG (C-SdCen E144A; E144A, 37 °C, Ca2+ 2 mM)?
Its ΔG is -11.41 kcal/mol.

And the TΔS (C-SdCen E144A; E144A, 37 °C, no Ca2+ (EDTA 2 mM))?
Its TΔS is -28.66 kcal/mol.

And the “effect of calcium on affinity (in words)” value (C-SdCen E144A; E144A, presence vs absence of calcium)?
Its value is “addition of calcium enhanced the affinity”.

And the ΔΔH (C-SdCen E144A; 30 °C, EDTA 2 mM)?
The ΔΔH was -4.3 kcal/mol.

What about the ΔΔH (C-SdCen E144A; 37 °C, EDTA 2 mM) of the same substance?
The ΔΔH was -2.2 kcal/mol.

And the ΔΔG (C-SdCen E144A; difference in free energy SdCen wt vs E144A, 30 °C, EDTA 2 mM)?
Its ΔΔG is -0.69 kcal/mol.

What about the “effect of F109L-E144A mutation on binding (in words)” value (C-SdCen F109L-E144A; F109L-E144A vs WT and single mutants, listed as XPC) of the same substance?
Its value is “enhanced the negative effect of the two single mutations on XPC binding; also recorded: further reduced XPC binding”.

What about the TΔS (C-SdCen F109L-E144A; 30 °C, Ca2+ 2 mM) of the same substance?
The TΔS was -3.69 kcal/mol.

And the ΔG (C-SdCen F109L-E144A; 30 °C, Ca2+ 2 mM)?
Its ΔG is -10.42 kcal/mol.

And the ΔG (C-SdCen F109L-E144A; 30 °C, no Ca2+ (EDTA 2 mM))?
Its ΔG is -7.81 kcal/mol.

And the TΔS (C-SdCen F109L-E144A; 37 °C, Ca2+ 2 mM)?
Its TΔS is -6.60 kcal/mol.

And the ΔG (C-SdCen F109L-E144A; 37 °C, Ca2+ 2 mM)?
Its ΔG is -10.59 kcal/mol.

And the TΔS (C-SdCen F109L-E144A; 37 °C, no Ca2+ (EDTA 2 mM))?
Its TΔS is -13.21 kcal/mol.

And the ΔΔH (C-SdCen F109L-E144A; 30 °C)?
Its ΔΔH is -11.6 kcal/mol.

What about the ΔΔH (C-SdCen F109L-E144A; 37 °C) of the same substance?
Its ΔΔH is -19.4 kcal/mol.

And the ΔΔG (C-SdCen F109L-E144A; 30 °C)?
Its ΔΔG is -2.6 kcal/mol.

What about the ΔΔG (C-SdCen F109L-E144A; 37 °C) of the same substance?
The ΔΔG was -2.67 kcal/mol.

Source: article PMC3871271 (FEBS Open Bio, 2013)
